Some results are limits rather than exact numbers.

Experiment [1] deals with 3',5'-cyclic-AMP phosphodiesterase 4A (Homo sapiens, UniProt P27815). Format: functional.
Another experiment addresses Histamine H3 receptor (Homo sapiens, UniProt Q9Y5N1).
The target in experiment [2] is T1, Prostaglandin G/H synthase 1 (Homo sapiens, UniProt P23219). The format is functional.
The next experiment has as its target T2, Estrogen receptor (Homo sapiens, UniProt P03372).
T2 sequence (P03372 whole entry): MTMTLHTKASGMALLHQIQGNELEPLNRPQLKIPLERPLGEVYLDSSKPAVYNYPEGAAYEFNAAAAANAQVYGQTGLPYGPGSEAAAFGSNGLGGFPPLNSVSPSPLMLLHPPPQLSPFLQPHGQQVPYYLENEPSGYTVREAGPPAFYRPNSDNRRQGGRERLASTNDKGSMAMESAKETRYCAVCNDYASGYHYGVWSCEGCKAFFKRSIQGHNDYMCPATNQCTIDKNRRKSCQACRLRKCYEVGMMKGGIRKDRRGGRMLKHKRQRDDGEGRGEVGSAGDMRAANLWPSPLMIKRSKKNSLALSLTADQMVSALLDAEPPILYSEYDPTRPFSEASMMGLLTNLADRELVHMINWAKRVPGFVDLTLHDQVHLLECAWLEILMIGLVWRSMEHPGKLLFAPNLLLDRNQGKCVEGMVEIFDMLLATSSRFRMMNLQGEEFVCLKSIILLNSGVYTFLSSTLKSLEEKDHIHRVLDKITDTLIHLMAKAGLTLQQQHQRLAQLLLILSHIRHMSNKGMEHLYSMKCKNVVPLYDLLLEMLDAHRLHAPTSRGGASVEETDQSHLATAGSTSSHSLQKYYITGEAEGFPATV

The next experiment concerns the target Mu-type opioid receptor (Homo sapiens, UniProt P35372).
Experiment [3] deals with Voltage-gated inwardly rectifying potassium channel KCNH2 (Homo sapiens, UniProt Q12809). Format: functional. The note with it: read-out: AC50.
Experiment [4] has as its target cGMP-inhibited 3',5'-cyclic phosphodiesterase 3A (Homo sapiens, UniProt Q14432). Format: functional.
For experiment [5], the target named is T3, Muscarinic acetylcholine receptor M2 (Homo sapiens, UniProt P08172).
T3 sequence (P08172 whole entry): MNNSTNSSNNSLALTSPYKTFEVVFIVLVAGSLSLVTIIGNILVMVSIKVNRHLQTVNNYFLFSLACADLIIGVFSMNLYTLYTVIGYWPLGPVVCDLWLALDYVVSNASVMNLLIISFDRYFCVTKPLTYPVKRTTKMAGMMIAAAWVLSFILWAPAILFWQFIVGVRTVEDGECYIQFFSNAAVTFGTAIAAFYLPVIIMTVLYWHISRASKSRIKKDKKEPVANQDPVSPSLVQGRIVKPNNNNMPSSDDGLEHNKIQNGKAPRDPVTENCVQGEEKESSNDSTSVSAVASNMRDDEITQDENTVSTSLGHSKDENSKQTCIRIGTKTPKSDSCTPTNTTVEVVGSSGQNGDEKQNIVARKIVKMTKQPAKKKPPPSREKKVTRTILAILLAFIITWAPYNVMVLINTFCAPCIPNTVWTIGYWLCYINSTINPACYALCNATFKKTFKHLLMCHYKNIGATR

For experiment [6], the target named is T1, Prostaglandin G/H synthase 1. The format is functional. The source holds these as a separate data set.
In experiment [7] the target is T4, Alpha-1A adrenergic receptor (Homo sapiens, UniProt P35348).
T4 sequence (P35348 whole entry): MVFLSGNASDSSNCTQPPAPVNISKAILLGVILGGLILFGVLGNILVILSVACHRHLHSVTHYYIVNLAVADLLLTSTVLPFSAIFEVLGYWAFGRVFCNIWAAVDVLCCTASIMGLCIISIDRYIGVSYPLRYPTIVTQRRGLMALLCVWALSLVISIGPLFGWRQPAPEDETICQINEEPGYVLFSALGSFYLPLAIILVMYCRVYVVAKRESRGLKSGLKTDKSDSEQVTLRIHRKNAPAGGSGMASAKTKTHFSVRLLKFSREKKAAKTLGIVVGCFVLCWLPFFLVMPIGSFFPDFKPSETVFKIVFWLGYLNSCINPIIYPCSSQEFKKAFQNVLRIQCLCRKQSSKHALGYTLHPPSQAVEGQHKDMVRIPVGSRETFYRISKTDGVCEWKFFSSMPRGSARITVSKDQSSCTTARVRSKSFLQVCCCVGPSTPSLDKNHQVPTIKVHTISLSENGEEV
Format: functional, cell-based.

Experiment [8] concerns the target T4, Alpha-1A adrenergic receptor. The format is functional, cell-based. The source holds these as a separate data set.
Experiment [9] deals with T5, Muscarinic acetylcholine receptor M1 (Homo sapiens, UniProt P11229).
T5 sequence (P11229 whole entry): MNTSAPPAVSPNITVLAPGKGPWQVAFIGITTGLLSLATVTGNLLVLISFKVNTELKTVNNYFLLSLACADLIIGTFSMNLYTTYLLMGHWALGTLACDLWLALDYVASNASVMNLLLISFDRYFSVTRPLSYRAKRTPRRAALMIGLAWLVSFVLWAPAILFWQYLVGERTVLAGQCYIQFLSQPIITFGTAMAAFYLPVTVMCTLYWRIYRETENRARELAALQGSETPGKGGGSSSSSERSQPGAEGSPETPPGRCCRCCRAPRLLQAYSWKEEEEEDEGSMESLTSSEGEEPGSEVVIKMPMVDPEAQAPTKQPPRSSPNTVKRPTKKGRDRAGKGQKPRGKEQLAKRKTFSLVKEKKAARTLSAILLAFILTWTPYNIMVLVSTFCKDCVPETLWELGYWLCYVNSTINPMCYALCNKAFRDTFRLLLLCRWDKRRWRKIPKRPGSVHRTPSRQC
Format: functional, cell-based.

Experiment [10] has as its target Sodium-dependent serotonin transporter (Homo sapiens, UniProt P31645).
Also: assay procedure not described here.

T1 sequence (P23219 whole entry): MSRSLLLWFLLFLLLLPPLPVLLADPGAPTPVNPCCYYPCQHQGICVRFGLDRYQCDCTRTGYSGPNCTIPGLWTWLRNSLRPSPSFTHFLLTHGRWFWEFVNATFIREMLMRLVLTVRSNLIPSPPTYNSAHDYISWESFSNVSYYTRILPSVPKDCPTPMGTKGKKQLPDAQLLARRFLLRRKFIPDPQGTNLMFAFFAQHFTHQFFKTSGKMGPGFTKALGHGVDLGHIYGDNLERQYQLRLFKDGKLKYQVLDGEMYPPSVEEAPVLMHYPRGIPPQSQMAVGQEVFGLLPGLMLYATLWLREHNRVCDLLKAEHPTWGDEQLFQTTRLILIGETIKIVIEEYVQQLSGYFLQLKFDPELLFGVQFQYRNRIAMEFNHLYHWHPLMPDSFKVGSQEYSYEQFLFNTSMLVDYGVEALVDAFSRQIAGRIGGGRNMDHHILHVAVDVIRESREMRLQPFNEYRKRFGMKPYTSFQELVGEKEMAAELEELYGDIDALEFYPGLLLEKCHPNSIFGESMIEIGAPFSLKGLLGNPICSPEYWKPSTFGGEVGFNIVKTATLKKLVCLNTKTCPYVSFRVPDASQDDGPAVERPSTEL
Sequence of Histamine H3 receptor (Q9Y5N1 whole entry): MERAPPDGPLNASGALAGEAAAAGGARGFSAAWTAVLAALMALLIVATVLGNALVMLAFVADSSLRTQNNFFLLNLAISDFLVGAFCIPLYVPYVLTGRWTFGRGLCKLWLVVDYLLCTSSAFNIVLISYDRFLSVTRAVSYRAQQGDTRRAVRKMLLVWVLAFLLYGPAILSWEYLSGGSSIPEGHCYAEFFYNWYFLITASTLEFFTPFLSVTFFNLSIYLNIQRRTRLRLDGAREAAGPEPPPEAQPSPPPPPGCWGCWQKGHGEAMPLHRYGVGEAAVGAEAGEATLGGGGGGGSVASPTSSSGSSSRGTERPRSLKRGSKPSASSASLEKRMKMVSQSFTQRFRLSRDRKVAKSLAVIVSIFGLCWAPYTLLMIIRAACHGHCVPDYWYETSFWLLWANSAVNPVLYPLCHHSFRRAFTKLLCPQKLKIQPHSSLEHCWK
Sequence of 3',5'-cyclic-AMP phosphodiesterase 4A (P27815 whole entry): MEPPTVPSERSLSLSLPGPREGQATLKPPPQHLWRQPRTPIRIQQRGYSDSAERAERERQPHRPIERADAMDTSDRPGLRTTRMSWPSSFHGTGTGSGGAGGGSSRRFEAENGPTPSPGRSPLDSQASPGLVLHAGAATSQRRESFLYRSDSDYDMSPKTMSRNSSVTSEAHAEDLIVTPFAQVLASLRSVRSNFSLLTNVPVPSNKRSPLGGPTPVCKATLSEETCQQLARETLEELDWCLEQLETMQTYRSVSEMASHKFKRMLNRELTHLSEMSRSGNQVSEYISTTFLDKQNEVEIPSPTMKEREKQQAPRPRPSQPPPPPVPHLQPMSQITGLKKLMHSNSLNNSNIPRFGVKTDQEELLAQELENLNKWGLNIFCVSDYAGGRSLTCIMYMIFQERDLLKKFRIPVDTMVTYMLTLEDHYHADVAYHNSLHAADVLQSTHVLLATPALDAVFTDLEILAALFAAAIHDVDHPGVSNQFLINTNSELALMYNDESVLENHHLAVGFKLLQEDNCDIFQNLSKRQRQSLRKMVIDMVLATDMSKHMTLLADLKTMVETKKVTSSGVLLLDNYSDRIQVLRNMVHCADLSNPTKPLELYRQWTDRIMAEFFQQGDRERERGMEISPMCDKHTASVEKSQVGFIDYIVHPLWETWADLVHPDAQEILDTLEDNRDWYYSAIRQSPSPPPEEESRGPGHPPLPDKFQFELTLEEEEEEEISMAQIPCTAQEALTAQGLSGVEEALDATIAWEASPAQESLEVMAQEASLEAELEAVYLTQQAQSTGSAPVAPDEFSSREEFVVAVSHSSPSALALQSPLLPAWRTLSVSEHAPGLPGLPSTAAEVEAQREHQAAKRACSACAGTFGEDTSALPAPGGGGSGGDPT
Sequence of Sodium-dependent serotonin transporter (P31645 whole entry): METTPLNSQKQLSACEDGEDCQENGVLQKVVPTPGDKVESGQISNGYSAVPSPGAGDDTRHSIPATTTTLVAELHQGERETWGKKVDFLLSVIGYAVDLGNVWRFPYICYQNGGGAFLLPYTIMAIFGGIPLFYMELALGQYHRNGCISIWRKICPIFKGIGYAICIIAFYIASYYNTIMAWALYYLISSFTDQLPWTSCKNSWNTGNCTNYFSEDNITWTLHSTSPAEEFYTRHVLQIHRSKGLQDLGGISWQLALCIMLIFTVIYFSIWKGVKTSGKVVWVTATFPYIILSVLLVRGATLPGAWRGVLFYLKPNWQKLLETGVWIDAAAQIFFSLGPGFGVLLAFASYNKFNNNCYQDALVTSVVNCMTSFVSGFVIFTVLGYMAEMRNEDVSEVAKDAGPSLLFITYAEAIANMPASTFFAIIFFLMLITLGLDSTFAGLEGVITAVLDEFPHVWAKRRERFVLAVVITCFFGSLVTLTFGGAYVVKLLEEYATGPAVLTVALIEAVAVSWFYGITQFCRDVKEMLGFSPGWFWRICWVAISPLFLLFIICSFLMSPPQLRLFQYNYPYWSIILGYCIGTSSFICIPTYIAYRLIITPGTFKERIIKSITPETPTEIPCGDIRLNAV
Sequence of Voltage-gated inwardly rectifying potassium channel KCNH2 (Q12809 whole entry): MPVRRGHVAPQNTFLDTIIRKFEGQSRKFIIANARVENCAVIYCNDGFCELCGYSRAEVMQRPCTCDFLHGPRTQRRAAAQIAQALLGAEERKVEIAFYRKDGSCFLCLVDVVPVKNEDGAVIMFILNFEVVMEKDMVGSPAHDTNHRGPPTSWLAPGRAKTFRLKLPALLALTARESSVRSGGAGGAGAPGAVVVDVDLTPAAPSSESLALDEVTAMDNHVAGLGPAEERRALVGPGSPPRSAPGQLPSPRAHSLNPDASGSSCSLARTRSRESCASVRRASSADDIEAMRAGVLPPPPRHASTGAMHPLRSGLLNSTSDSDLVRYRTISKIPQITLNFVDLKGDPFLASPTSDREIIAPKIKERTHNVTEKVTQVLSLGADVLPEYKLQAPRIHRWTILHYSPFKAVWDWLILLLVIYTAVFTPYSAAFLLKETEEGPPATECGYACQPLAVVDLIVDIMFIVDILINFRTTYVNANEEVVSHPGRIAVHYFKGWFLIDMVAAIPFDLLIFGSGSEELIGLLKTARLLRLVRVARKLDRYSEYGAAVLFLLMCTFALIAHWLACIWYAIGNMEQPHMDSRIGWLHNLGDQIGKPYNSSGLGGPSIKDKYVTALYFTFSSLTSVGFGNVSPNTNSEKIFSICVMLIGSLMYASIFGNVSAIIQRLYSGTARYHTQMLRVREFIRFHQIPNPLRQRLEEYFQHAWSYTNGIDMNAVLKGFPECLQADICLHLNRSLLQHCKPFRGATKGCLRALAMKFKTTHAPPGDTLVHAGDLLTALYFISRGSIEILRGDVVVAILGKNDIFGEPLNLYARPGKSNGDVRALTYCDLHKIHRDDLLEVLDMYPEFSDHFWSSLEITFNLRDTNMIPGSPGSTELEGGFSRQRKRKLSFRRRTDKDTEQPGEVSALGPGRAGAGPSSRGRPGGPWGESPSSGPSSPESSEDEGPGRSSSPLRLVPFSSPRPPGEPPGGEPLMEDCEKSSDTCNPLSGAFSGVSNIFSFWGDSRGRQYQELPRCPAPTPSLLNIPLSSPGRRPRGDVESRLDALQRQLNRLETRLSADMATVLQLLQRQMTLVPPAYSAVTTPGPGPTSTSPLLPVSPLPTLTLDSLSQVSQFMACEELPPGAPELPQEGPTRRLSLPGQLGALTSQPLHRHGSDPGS
Sequence of cGMP-inhibited 3',5'-cyclic phosphodiesterase 3A (Q14432 whole entry): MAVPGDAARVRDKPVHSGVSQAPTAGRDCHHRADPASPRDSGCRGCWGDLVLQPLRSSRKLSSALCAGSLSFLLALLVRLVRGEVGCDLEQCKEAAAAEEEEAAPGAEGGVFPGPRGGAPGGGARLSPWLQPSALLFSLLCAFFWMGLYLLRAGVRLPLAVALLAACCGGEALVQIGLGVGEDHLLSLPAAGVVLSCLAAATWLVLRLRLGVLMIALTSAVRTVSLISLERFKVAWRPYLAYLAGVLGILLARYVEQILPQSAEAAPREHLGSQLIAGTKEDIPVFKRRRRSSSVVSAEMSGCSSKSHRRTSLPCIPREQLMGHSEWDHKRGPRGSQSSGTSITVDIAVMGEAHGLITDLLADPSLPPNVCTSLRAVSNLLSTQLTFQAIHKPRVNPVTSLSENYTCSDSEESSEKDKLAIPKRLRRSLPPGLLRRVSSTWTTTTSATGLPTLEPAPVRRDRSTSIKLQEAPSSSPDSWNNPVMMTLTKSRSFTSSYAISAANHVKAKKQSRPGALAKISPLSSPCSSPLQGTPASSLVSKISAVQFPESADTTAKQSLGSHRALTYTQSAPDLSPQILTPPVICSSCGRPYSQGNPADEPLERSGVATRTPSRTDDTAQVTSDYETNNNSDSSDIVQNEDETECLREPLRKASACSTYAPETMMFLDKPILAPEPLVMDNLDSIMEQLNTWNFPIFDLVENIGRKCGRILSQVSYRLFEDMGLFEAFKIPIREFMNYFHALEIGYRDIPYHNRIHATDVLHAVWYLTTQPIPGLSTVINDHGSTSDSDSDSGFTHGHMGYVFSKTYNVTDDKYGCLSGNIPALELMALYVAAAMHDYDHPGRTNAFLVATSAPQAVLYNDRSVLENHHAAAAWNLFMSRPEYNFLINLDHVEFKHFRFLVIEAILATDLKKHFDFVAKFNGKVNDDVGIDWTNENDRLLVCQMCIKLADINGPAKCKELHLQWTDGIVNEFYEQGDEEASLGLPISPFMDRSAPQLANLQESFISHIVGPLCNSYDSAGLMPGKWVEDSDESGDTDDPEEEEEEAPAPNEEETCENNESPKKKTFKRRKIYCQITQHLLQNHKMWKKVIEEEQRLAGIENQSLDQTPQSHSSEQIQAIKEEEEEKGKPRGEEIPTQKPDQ

As usually defined, the AC50 is the concentration giving half of the maximal activity seen. For the molecule `COc1cc2nc(N3CCN(C(=O)c4ccco4)CC3)nc(N)c2cc1OC` [PRAZOSIN], the AC50 in experiment [1] was over 30 µM; on Histamine H3 receptor, over 30 µM; in [2], over 30 µM; at Estrogen receptor it was over 30 µM; on Mu-type opioid receptor, 17.5 µM; in [3], 3.73 µM. Besides, the AC50 in experiment [4] is over 30 µM; in [5], 13.3 µM; in [6], over 30 µM.

Consider `Nc1nc2nc[nH]c2c(=S)[nH]1` [THIOGUANINE], for which the AC50 was over 30 µM in [1]; over 30 µM on Histamine H3 receptor; 1.32 µM in [2]; over 30 µM at Estrogen receptor; over 30 µM at Mu-type opioid receptor; over 30 µM in experiment [7]. For the same molecule, the AC50 is over 30 µM in experiment [4], over 30 µM in experiment [8], over 30 µM in [5] and 0.81 µM in experiment [6].

For the molecule `C=CCN1C[C@H](C(=O)N(CCCN(C)C)C(=O)NCC)C[C@@H]2c3cccc4[nH]cc(c34)C[C@H]21` [CABERGOLINE], the AC50 was over 30 µM in experiment [1]; over 30 µM at Histamine H3 receptor; over 30 µM in experiment [2]; over 30 µM at Estrogen receptor; over 30 µM on Mu-type opioid receptor; 7.68 µM in [3]. Further, the AC50 in experiment [4] was over 30 µM; in experiment [8], 0.142 µM; in experiment [9] it was over 30 µM; in [10], over 30 µM; in experiment [5], over 30 µM; in experiment [6], over 30 µM.

As to `Clc1cc(Cl)c(OCC#CI)cc1Cl` [HALOPROGIN], the AC50 was over 30 µM in experiment [1]; over 30 µM on Histamine H3 receptor; over 30 µM in [2]; over 30 µM at Estrogen receptor; 12.3 µM at Mu-type opioid receptor; over 30 µM in experiment [7]. The AC50 in [3] was 9.85 µM; in experiment [4], over 30 µM; in [8] it was over 30 µM; in experiment [5], over 30 µM; in experiment [6], over 30 µM.

Regarding `CCOc1ccc(Cc2cc([C@@H]3O[C@H](CO)[C@@H](O)[C@H](O)[C@H]3O)ccc2Cl)cc1` [DAPAGLIFLOZIN], the AC50 (in experiment [1]; on Histamine H3 receptor; in experiment [2]; on Estrogen receptor; at Mu-type opioid receptor; in experiment [7]) was over 30 µM throughout. For the same molecule, the AC50 in experiment [3], in experiment [4], in experiment [8], in experiment [9], in experiment [5] and in experiment [6] was over 30 µM in each case.

As to `COc1ccc2c(c1)N(C[C@H](C)CN(C)C)c1ccccc1S2` [LEVOMEPROMAZINE], the AC50 in experiment [1] was over 30 µM; on Histamine H3 receptor, over 30 µM; in [2] it was over 30 µM; on Estrogen receptor, over 30 µM; at Mu-type opioid receptor, 13.5 µM; in experiment [3], 11 µM. In addition, the AC50 is over 30 µM in experiment [4]; 0.331 µM in [9]; over 30 µM in experiment [10]; 1.68 µM in experiment [5]; 11.3 µM in experiment [6].

`CCOc1ccccc1OCC1CNCCO1` (centres undefined) [VILOXAZINE]: the AC50 (in [1]; at Histamine H3 receptor; in experiment [2]; on Estrogen receptor; on Mu-type opioid receptor; in experiment [7]) was over 30 µM in each case. The AC50 in [3], in experiment [4], in [8], in [9], in experiment [5] and in experiment [6] was over 30 µM in each case.

For `CC[C@]1(O)C[C@H]2CN(CCc3c([nH]c4ccccc34)[C@@](C(=O)OC)(c3cc4c(cc3OC)N(C=O)[C@H]3[C@@](O)(C(=O)OC)[C@H](OC(C)=O)[C@]5(CC)C=CCN6CC[C@]43[C@@H]65)C2)C1` [VINCRISTINE], the concentration at half-maximal activity (AC50) is over 30 µM in experiment [1]; over 30 µM at Histamine H3 receptor; 5.73 µM in experiment [2]; over 30 µM at Estrogen receptor; over 30 µM at Mu-type opioid receptor; over 30 µM in experiment [7]. For the same molecule, the AC50 in experiment [4] is over 30 µM; in [8], over 30 µM; in [5] it was over 30 µM; in experiment [6], 11.2 µM.

For `CC(C)C[C@H]1C(=O)N2CCC[C@H]2[C@]2(O)O[C@](NC(=O)[C@@H]3C[C@@H]4c5cccc6[nH]cc(c56)C[C@H]4N(C)C3)(C(C)C)C(=O)N12` [DIHYDROERGOCRYPTINE], the AC50 in [1] was over 30 µM; on Histamine H3 receptor, over 30 µM; in [2], 27.4 µM; on Estrogen receptor it was over 30 µM; on Mu-type opioid receptor, 10.3 µM; in [3] it was over 30 µM. For the same molecule, the AC50 was over 30 µM in [4]; 5.77 µM in experiment [8]; over 30 µM in experiment [9]; over 30 µM in [10]; over 30 µM in experiment [5]; 18.4 µM in experiment [6].

For `C=CCCCCCCCCC(=O)O` [UNDECYLENIC ACID], the AC50 (in [1]; on Histamine H3 receptor; in experiment [2]; on Estrogen receptor; on Mu-type opioid receptor; in experiment [4]) was over 30 µM each time. Besides, the AC50 in experiment [10], in [5] and in experiment [6] was over 30 µM each time.

On to `O=c1[nH]c(=O)n([C@H]2C[C@H](O)[C@@H](CO)O2)cc1F` [FLOXURIDINE], for which the AC50 (in experiment [1]; at Histamine H3 receptor; in experiment [2]; at Estrogen receptor; at Mu-type opioid receptor; in experiment [7]) was over 30 µM in each case. The AC50 in experiment [3], in experiment [4], in [8], in [5] and in [6] was over 30 µM in each case.

In the case of `Cc1oc(=O)oc1CN1CCN(c2cc3c(cc2F)c(=O)c(C(=O)O)c2n3C(C)S2)CC1` (centres undefined) [PRULIFLOXACIN], the AC50 (in experiment [1]; at Histamine H3 receptor; in experiment [2]; at Estrogen receptor; on Mu-type opioid receptor; in experiment [3]) was over 30 µM in each case. In addition, the AC50 in [4], in [10], in [5] and in experiment [6] was over 30 µM each time.

These data come from ChEMBL document CHEMBL5291721, “A preclinical secondary pharmacology resource illuminates target-adverse drug reaction associations of marketed drugs” (Nat Commun, 2023).
